Experimental data taken from PubChem BioAssay AID306 (DTP/NCI, 2004).
“And” between values parts separate entries of the source, which are not always exact repeats. Equal values may be shown once. Toxic doses and inconclusive results are not listed. *1 amine or outer side, *2 acyl side, *3 side chain or, on linkers, in order; H or OH if unused. Where a SMILES comes first, the peptide text is derived from it. Bridges are numbered along the chain shown (N, C = ends). Roman numbers before positions name the chains, in order. [ ]: non-standard residue; d: D form. Actinocin(9to1) = Cc1c2oc3c(C)ccc(C(=O)[*:1])c3nc-2c(C(=O)[*:2])c(N)c1=O; aThr = C[C@H](O)[C@H](N)C(=O)O; NMeV = CN[C@H](C(=O)O)C(C)C; Sar = CNCC(=O)O

System: BDF1 mice, L1210 Methyl-GAG-resistant leukemia, survival T/C
Experiment: NCI In Vivo Anticancer Drug Screen. Data for tumor model L1210 Leukemia resistant to Methyl-GAG; NSC 32946 (subcutaneous) in B6D2F1 (BDF1) mice
Conditions: endpoint: mean survival time, higher = longer survival
Procedure: The antitumor activity of compounds was measured in mice bearing transplantable tumors. Survival or tumor size were measured and the results are expressed as the measurement made in the treated group (T) divided by the measurement made in the vehicle treated control group (C). The tumor model used in this assay is L1210 Leukemia resistant to Methyl-GAG; NSC 32946 (subcutaneous) in B6D2F1 (BDF1) mice

[1] = dose: 62.5 mg/kg/injection, schedule: Q01DX Z (ip), vehicle: carboxymethylcellulose (CMC)
[2] = dose: 125.0 mg/kg/injection, schedule: Q01DX Z (ip), vehicle: carboxymethylcellulose (CMC)
[3] = dose: 12.5 mg/kg/injection, schedule: Q01DX Z (ip), vehicle: carboxymethylcellulose (CMC)
[4] = dose: 25.0 mg/kg/injection, schedule: Q01DX Z (ip), vehicle: carboxymethylcellulose (CMC)
[5] = dose: 50.0 mg/kg/injection, schedule: Q01DX Z (ip), vehicle: carboxymethylcellulose (CMC)
[6] = dose: 100.0 mg/kg/injection, schedule: Q01DX Z (ip), vehicle: carboxymethylcellulose (CMC)
[7] = dose: 200.0 mg/kg/injection, schedule: Q01DX Z (ip), vehicle: carboxymethylcellulose (CMC)
[8] = dose: 62.5 mg/kg/injection, schedule: Q01DX Z (sc), vehicle: steriod suspending solution
[9] = dose: 6.25 mg/kg/injection, schedule: Q01DX Z (ip), vehicle: carboxymethylcellulose (CMC)
[10] = dose: 1.6 mg/kg/injection, schedule: Q01DX Z (ip), vehicle: carboxymethylcellulose (CMC)
[11] = dose: 3.1 mg/kg/injection, schedule: Q01DX Z (ip), vehicle: carboxymethylcellulose (CMC)
[12] = dose: 25.0 mg/kg/injection, schedule: Q01DX Z (sc), vehicle: steriod suspending solution
[13] = dose: 100.0 mg/kg/injection, schedule: Q01DX Z (sc), vehicle: steriod suspending solution
[14] = dose: 400.0 mg/kg/injection, schedule: Q01DX Z (sc), vehicle: steriod suspending solution

CCOC(=O)NP(=O)(N1CC1(C)C)N1CC1(C)C (configuration not stated)
T/C [1]: 95 % of control
T/C [2]: 95 % of control
T/C (dose: 250.0 mg/kg/injection, schedule: Q01DX Z (ip), vehicle: carboxymethylcellulose (CMC)): 97 % of control
T/C (dose: 500.0 mg/kg/injection, schedule: Q01DX Z (ip), vehicle: carboxymethylcellulose (CMC)): 93 % of control

Nc1nc(N)c2nc(CNc3ccc(C(=O)NC(CCC(=O)O)C(=O)O)cc3)cnc2n1 (configuration not stated)
T/C (dose: 2.0 micrograms/kg/injection, schedule: Q01DX Z (ip), vehicle: alkali diluted with saline): 98 % of control
T/C (dose: 4.0 micrograms/kg/injection, schedule: Q01DX Z (ip), vehicle: alkali diluted with saline): 100 % of control
T/C (dose: 16.0 micrograms/kg/injection, schedule: Q01DX Z (ip), vehicle: alkali diluted with saline): 110 % of control
T/C (dose: 31.0 micrograms/kg/injection, schedule: Q01DX Z (ip), vehicle: alkali diluted with saline): 88 % of control
T/C (dose: 63.0 micrograms/kg/injection, schedule: Q01DX Z (ip), vehicle: alkali diluted with saline): 187 % of control
T/C (dose: 125.0 micrograms/kg/injection, schedule: Q01DX Z (ip), vehicle: alkali diluted with saline): 94 % of control

NC(Cc1ccc(N(CCCl)CCCl)cc1)C(=O)O (configuration not stated)
T/C (dose: 1.25 mg/kg/injection, schedule: Q01DX Z (ip), vehicle: carboxymethylcellulose (CMC)): 104 % of control
T/C (dose: 2.5 mg/kg/injection, schedule: Q01DX Z (ip), vehicle: carboxymethylcellulose (CMC)): 106 % of control
T/C (dose: 3.2 mg/kg/injection, schedule: Q01DX Z (ip), vehicle: saline): 94 % of control
T/C (dose: 5.0 mg/kg/injection, schedule: Q01DX Z (ip), vehicle: carboxymethylcellulose (CMC)): 106 % of control
T/C (dose: 6.3 mg/kg/injection, schedule: Q01DX Z (ip), vehicle: saline): 118 % of control
T/C (dose: 10.0 mg/kg/injection, schedule: Q01DX Z (ip), vehicle: carboxymethylcellulose (CMC)): 120 % of control
T/C (dose: 12.5 mg/kg/injection, schedule: Q01DX Z (ip), vehicle: saline): 113 % of control
T/C (dose: 20.0 mg/kg/injection, schedule: Q01DX Z (ip), vehicle: carboxymethylcellulose (CMC)): 98 % of control
T/C (dose: 25.0 mg/kg/injection, schedule: Q01DX Z (ip), vehicle: saline): 94 % of control

Clc1ncnc2nc[nH]c12
T/C (dose: 31.25 mg/kg/injection, schedule: Q01DX Z (ip), vehicle: carboxymethylcellulose (CMC)): 100 % of control
T/C [1]: 90 % of control
T/C [2]: 121 % of control

C[N+](C)(C)c1ncnc2nc[nH]c12
T/C [3]: 101 % of control
T/C [4]: 103 % of control
T/C [5]: 101 % of control and 112 % of control
T/C [6]: 94 % of control and 117 % of control
T/C [7]: 102 % of control

S=P(N1CCOCC1)(N1CC1)N1CC1
T/C [3]: 104 % of control
T/C [4]: 102 % of control

O=C(Nc1ccc(C2=NCCN2)cc1)c1ccc(C(=O)Nc2ccc(C3=NCCN3)cc2)cc1
T/C [4]: 98 % of control
T/C [5]: 98 % of control
T/C [6]: 124 % of control
T/C [7]: 236 % of control
T/C (dose: 400.0 mg/kg/injection, schedule: Q01DX Z (ip), vehicle: carboxymethylcellulose (CMC)): 104 % of control

CCC(=O)O[C@H]1CC[C@H]2[C@@H]3CCC4=CC(=O)CC[C@]4(C)[C@H]3CC[C@]12C
T/C (dose: 37.5 mg/kg/injection, schedule: Q01DX Z (sc), vehicle: steriod suspending solution): 101 % of control
T/C (dose: 60.0 mg/kg/injection, schedule: Q01DX Z (sc), vehicle: steriod suspending solution): 120 % of control
T/C (dose: 75.0 mg/kg/injection, schedule: Q01DX Z (sc), vehicle: steriod suspending solution): 104 % of control
T/C (dose: 150.0 mg/kg/injection, schedule: Q01DX Z (sc), vehicle: steriod suspending solution): 98 % of control
T/C (dose: 300.0 mg/kg/injection, schedule: Q01DX Z (sc), vehicle: steriod suspending solution): 98 % of control and 119 % of control
T/C (dose: 1500.0 mg/kg/injection, schedule: Q01DX Z (sc), vehicle: steriod suspending solution): 96 % of control

S=P(N1CC1)(N1CC1)N1CC1
T/C (dose: 0.62 mg/kg/injection, schedule: Q01DX Z (ip), vehicle: saline): 111 % of control
T/C (dose: 5.0 mg/kg/injection, schedule: Q01DX Z (ip), vehicle: saline): 150 % of control
T/C (dose: 10.0 mg/kg/injection, schedule: Q01DX Z (ip), vehicle: saline): 110 % of control

c1ccc(CNc2ncnc3[nH]ncc23)cc1
T/C (dose: 0.97 mg/kg/injection, schedule: Q01DX Z (ip), vehicle: carboxymethylcellulose (CMC)): 107 % of control
T/C (dose: 1.95 mg/kg/injection, schedule: Q01DX Z (ip), vehicle: carboxymethylcellulose (CMC)): 102 % of control
T/C (dose: 3.9 mg/kg/injection, schedule: Q01DX Z (ip), vehicle: carboxymethylcellulose (CMC)): 108 % of control and 121 % of control
T/C (dose: 7.8 mg/kg/injection, schedule: Q01DX Z (ip), vehicle: carboxymethylcellulose (CMC)): 100 % of control and 103 % of control
T/C (dose: 15.5 mg/kg/injection, schedule: Q01DX Z (ip), vehicle: carboxymethylcellulose (CMC)): 107 % of control
T/C (dose: 31.0 mg/kg/injection, schedule: Q01DX Z (ip), vehicle: carboxymethylcellulose (CMC)): 110 % of control

C[C@]12C=CC(=O)C=C1CC[C@@H]1[C@@H]2[C@@H](O)C[C@@]2(C)[C@H]1CC[C@]2(O)C(=O)CO
T/C [8]: 104 % of control
T/C (dose: 125.0 mg/kg/injection, schedule: Q01DX Z (sc), vehicle: steriod suspending solution): 104 % of control and 124 % of control
T/C (dose: 250.0 mg/kg/injection, schedule: Q01DX Z (sc), vehicle: steriod suspending solution): 94 % of control

Nc1nc(SCc2ccccc2)c2[nH]cnc2n1
T/C [9]: 104 % of control
T/C [3]: 154 % of control

Cn1c(N)nc2nc[nH]c2c1=S
T/C [10]: 98 % of control
T/C [11]: 100 % of control and 104 % of control
T/C [9]: 97 % of control and 102 % of control
T/C [3]: 93 % of control and 98 % of control and 102 % of control
T/C [4]: 102 % of control
T/C [5]: 100 % of control and 111 % of control
T/C [6]: 101 % of control
T/C [7]: 97 % of control

Cc1c2oc3c(C)ccc(C(=O)N[C@@H]4C(=O)N[C@H](C(C)C)C(=O)N5CCC[C@H]5C(=O)N(C)CC(=O)N(C)[C@@H](C(C)C)C(=O)O[C@H]4C)c3nc-2c(C(=O)N[C@@H]2C(=O)N[C@H](C(C)C)C(=O)N3CCC[C@H]3C(=O)N(C)CC(=O)N(C)[C@@H](C(C)C)C(=O)O[C@H]2C)c(N)c1=O (I: [aThr][dV]P[Sar][NMeV] / II: [aThr][dV]P[Sar][NMeV]; ester I:1-I:C, II:1-II:C; linker I:N-II:N via Actinocin(9to1))
T/C (dose: 0.8 micrograms/kg/injection, schedule: Q01DX Z (ip), vehicle: saline): 96 % of control
T/C (dose: 6.4 micrograms/kg/injection, schedule: Q01DX Z (ip), vehicle: saline): 93 % of control
T/C (dose: 25.6 micrograms/kg/injection, schedule: Q01DX Z (ip), vehicle: saline): 96 % of control
T/C (dose: 51.2 micrograms/kg/injection, schedule: Q01DX Z (ip), vehicle: saline): 98 % of control
T/C (dose: 102.0 micrograms/kg/injection, schedule: Q01DX Z (ip), vehicle: saline): 90 % of control

CC(=O)[C@H]1CC[C@H]2[C@@H]3C[C@H](C)C4=CC(=O)CC[C@]4(C)[C@H]3C(=O)C[C@]12C
T/C [12]: 97 % of control
T/C (dose: 50.0 mg/kg/injection, schedule: Q01DX Z (sc), vehicle: steriod suspending solution): 95 % of control and 103 % of control
T/C [13]: 97 % of control and 103 % of control and 114 % of control
T/C (dose: 200.0 mg/kg/injection, schedule: Q01DX Z (sc), vehicle: steriod suspending solution): 90 % of control and 105 % of control and 111 % of control
T/C [14]: 105 % of control and 112 % of control
T/C (dose: 800.0 mg/kg/injection, schedule: Q01DX Z (sc), vehicle: steriod suspending solution): 120 % of control

C[n+]1c2ccccc2nc2c(N)cc(N)cc21
T/C [10]: 101 % of control
T/C [11]: 102 % of control
T/C (dose: 6.3 mg/kg/injection, schedule: Q01DX Z (ip), vehicle: carboxymethylcellulose (CMC)): 98 % of control and 104 % of control
T/C [3]: 104 % of control
T/C [4]: 104 % of control

N=C(N)c1ccc(Nc2ccc(C(=N)N)cc2)cc1
T/C (dose: 3.1 mg/kg/injection, schedule: Q01DX Z (ip), vehicle: methylcellulose (MC)): 98 % of control and 102 % of control
T/C (dose: 6.25 mg/kg/injection, schedule: Q01DX Z (ip), vehicle: methylcellulose (MC)): 107 % of control
T/C (dose: 6.3 mg/kg/injection, schedule: Q01DX Z (ip), vehicle: methylcellulose (MC)): 93 % of control
T/C (dose: 12.5 mg/kg/injection, schedule: Q01DX Z (ip), vehicle: methylcellulose (MC)): 97 % of control

C[C@]12CCC(=O)C=C1CC[C@@H]1[C@@H]2C(=O)C[C@@]2(C)[C@H]1CC[C@]2(O)C(=O)CO
T/C (dose: 6.25 mg/kg/injection, schedule: Q01DX Z (sc), vehicle: steriod suspending solution): 100 % of control
T/C [12]: 102 % of control
T/C [8]: 121 % of control
T/C [13]: 113 % of control
T/C [14]: 116 % of control
